The source of these data is US20220304955A1 (Nacuity Pharmaceuticals, Inc., priority 2021, published 2022).

Usually Km stands for the concentration of substrate that gives half-maximal velocity.

Molecules are shown by their SMILES. Some results are limits rather than exact numbers.

The test system of one data set is Caenorhabditis elegans. The data set can be described thus: Caenorhabditis elegans Lifespan assay. The data set is classed as in vivo. To be noted: for Median survival: from late L4 larval/young adult stage, 25 °C, strain TJ1060. On the procedure:
NAC and NACA were dissolved in sterile water then added to the molten NGM at 55° C. Media containing equivalent vehicle alone (1% v/v DMSO) was used for comparison. 1% v/v DMSO was also added to NAC and NACA plates for consistency, as DMSO itself may affect lifespan. Standard overnight culture of the Escherichia coli strain OP50 was used as the food source. Lifespan data were collected at 25 (±1) ° C. using the temperature sensitive-sterile strain TJ1060 [spe-9(hc88); rrf-3(b26)] as a proxy for wildtype. A developmentally synchronous population was obtained by transferring egg-laying adults to fresh plates at 16° C. for 4 hours. The adults were removed and the plates with eggs then transferred to 25° C. to ensure sterility. After 48 hours at 25° C., when worms were at the late L4 larval/young adult stage, 25-35 nematodes were transferred to fresh plates containing either vehicle control (1% v/v DMSO), 1 mM NAC, 10 mM NAC, 1 mM NACA, 10 mM NACA, 1 mM diNACA, and 10 mM diNACA. All plates were coded to allowing blinding of the experimenter to the treatment regime during scoring. Nematodes were scored for survival at 1 to 2-day intervals and transferred to freshly prepared plates as needed (every 2-4 days). Worms lost not due to death were recorded as censored.
Results. Data was analyzed using GraphPad Prism 9, with survival curves compared using a long-rank (Mantel-Cox) test. P values are given for pair-wise comparisons to the vehicle control population.

For another data set, the system named is N27 cells. The data set can be described thus: Cellular ferroptosis assay, cell viability by MTT. The data set is classed as cell-based, rat. As to the method:
Materials and Methods. […] Cells were cultured at 37° C. with 5% CO2.

Data set [1] can be described thus: Solubility of diNACA in solvents. The data set is classed as physicochemical.
A further data set deals with C. elegans. The data set can be described thus: Diethyl maleate (DEM) assay, survival of C. elegans. Type of data set: in vivo, Caenorhabditis elegans. To be noted: for % alive: then 10 mM DEM, scored at 24 hours. On the procedure: Materials and Methods. Effects of NAC, NACA and diNACA on diethyl maleate (DEM; Sigma-Aldrich)-induced toxicity in C. elegans was evaluated. (10 mM DEM alone conjugates GSH causing 50% depletion of GSH and 50% lethality after 24 hour exposure (Jenkins et al., 2020)). DEM was added to neat DMSO and added to molten NGM at 55° C. to a final concentration of 10 mM DEM and 0.5% v/v DMSO. Plates were seeded with E. coli strain OP50. Data were collected at 25 (±1) ° C. using the temperature sensitive-sterile strain TJ1060. A synchronous population was obtained by transferring egg-laying adults to fresh plates at 16° C. for 2-3 hours. The adults were removed and the plates with eggs then transferred to 25° C. to ensure sterility. After 48 hours at 25° C., when worms were at the late L4/young adult stage, 70 nematodes were transferred to fresh plates containing either vehicle control, 1 mM NAC, 10 mM NAC, 1 mM NACA, 10 mM NACA, 1 mM diNACA, 10 mM diNACA (all with 1.0% v/v DMSO). Worms were aged at 25° C. for a further 4 days and then transferred to DEM plates, 35-45 per plate, two plates per treatment. Survival, determined by touch-provoked movement, was scored at 24 hours after exposure to DEM.

The nature of data set [2]: Bioavailability after oral administration in rat (plasma levels). Type of data set: in vivo. As to the method: Materials and Methods. Bioavailability of diNACA after oral administration in rat was evaluated. NACA and diNACA, separately, were suspended in phosphate-buffered saline (pH 7) and dosed to rats by oral gavage. Blood specimens were collected and processed to produce plasma. Plasma specimens were analyzed for NAC, NACA and diNACA concentration.
The thiol moiety of NAC, NACA, or diNACA and their respective internal standards oxidizes quickly in plasma through formation of disulfides. In order to determine total NAC and total NACA levels in plasma, tris(2-carboxyethyl)phosphine (TCEP) is added during the extraction to reduce disulfide bonds. Ammonium bicarbonate is added to control sample pH near neutral, as TCEP will otherwise acidify the aliquoted samples and hinder derivatization. The free analyte is then derivatized to a stable thioether using 2-chloro-1-methylpyridinium iodide (CMPI). […]
Thioether derivatives of NAC and NACA for LCMS analyses. Samples were analyzed on a Waters Acquity liquid chromatograph interfaced with a Thermo Scientific TSQ Vantage triple quadrupole mass spectrometer with ESI ionization. […]

Data set [3] concerns the target T1, glutamate cysteine ligase (GCL, EC 6.3.2.2) (Homo sapiens, UniProt P48506).
T1 sequence (P48506 1-637): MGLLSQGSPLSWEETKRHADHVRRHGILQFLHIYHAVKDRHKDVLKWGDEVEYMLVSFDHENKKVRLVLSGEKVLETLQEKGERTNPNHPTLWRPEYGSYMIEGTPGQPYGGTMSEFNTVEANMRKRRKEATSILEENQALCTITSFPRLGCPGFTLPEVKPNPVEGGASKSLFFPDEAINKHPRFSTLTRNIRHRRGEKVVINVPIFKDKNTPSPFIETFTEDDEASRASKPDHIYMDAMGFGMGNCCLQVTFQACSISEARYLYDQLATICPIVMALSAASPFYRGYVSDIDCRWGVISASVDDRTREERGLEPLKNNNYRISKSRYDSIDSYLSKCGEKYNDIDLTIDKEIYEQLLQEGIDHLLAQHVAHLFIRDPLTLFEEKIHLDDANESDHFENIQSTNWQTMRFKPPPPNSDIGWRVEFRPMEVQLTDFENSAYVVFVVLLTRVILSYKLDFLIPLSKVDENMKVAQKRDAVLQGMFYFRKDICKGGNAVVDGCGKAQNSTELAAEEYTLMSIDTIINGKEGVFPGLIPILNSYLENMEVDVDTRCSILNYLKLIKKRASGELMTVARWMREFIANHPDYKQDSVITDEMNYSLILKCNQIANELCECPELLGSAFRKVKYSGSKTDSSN
T1 sequence (P48507 1-274 partner): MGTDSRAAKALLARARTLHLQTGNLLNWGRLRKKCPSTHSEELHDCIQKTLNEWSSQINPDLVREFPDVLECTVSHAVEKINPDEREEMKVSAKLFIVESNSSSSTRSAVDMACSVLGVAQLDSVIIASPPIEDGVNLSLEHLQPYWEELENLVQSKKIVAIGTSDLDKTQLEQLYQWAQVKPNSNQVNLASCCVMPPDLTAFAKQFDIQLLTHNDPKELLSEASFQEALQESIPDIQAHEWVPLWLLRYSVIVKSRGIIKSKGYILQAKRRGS
To be noted: read-out: apparent Km; cited from earlier work.

Consider `CC(=O)N[C@@H](CSSC[C@H](NC(C)=O)C(N)=O)C(N)=O` [diNACA, (2R,2R′)-3,3′-disulfanediyl bis(2-acetamidopropanamide)], for which the increase in lifespan result in the data set on Caenorhabditis elegans (1 mM) and in the data set on Caenorhabditis elegans (10 mM) was “marked increase in lifespan” in each case. Besides, the “Median survival” value with Caenorhabditis elegans (1 mM in NGM) and in the data set on Caenorhabditis elegans (10 mM in NGM) was 18 days in each case. In the data set on Caenorhabditis elegans (FIG. 8), the “lifespan of C. elegans relative to control” value is “more than doubled the lifespan”. In addition, in the data set with Caenorhabditis elegans (versus control), the “percentage lifespan extension, increase in median lifespan” value was 125%. For the same compound, in the data set with N27 cells (50 or 500 μM in PBS for 24 hours, then erastin, RSL3 or glutamate for additional 24 hours), the “anti-ferroptotic activity on pretreatment prior to ferroptosis induction” value is recorded as “did not differentiate anti-ferroptotic activity”. In addition, the “concentration at which a small effect on RSL3 toxicity is seen” value with N27 cells (diNACA solubilized in media (2-75 mM), RSL3 100 nM, 24 hours) was found to be 75 mM. For the same compound, in the data set with N27 cells (diNACA solubilized in media (2-75 mM), erastin 2 μM or glutamate 100 mM, 24 hours), the “concentration partially preventing erastin and glutamate-induced toxicity” value was at least 5 mM. The “prevention of ferroptosis induced by erastin, RSL3 and glutamate (cell viability)” value in the data set with N27 cells (erastin 2 μM, RSL3 100 nM or glutamate 100 mM, 24 hours, added at same time, liproxstatin-1 4-250 nM, NAC, NACA (in water), diNACA (in NMP) 8-500 μM) is recorded as “did not prevent ferroptosis”. Further, in the data set with N27 cells (erastin, RSL3 or glutamate for 5 hours, then 50 or 500 μM in PBS for additional 19 hours), the “anti-ferroptotic activity on post-treatment” value is given as “did not differentiate anti-ferroptotic activity”. Also, the “solubility in water or DMSO” value in data set [1] (Nacuity data on file) is “not soluble in water or DMSO”. Besides, the “solubility in neat DMSO” value in data set [1] (suspension, dissolved upon addition to NGM) is reported as “not fully soluble in DMSO”. The “rescue from DEM-induced toxicity” value with C. elegans (1 mM) and in the data set on C. elegans (10 mM) was “rescue” throughout. In addition, the results for the “% alive” value with C. elegans (1 mM pre-treatment 4 days) and in the data set on C. elegans (10 mM pre-treatment 4 days) were 95% and 98%, respectively. Further, the “metabolism, plasma levels of NACA and NAC” value in data set [2] (200 mg/kg oral diNACA compared with oral NACA) was “metabolized to NACA and NAC to yield greater levels for longer periods of time compared to oral dosing with NACA”. The “absorption after oral administration” value in data set [2] (200 mg/kg oral gavage, suspension in PBS pH 7) is “well absorbed”.
Take `N[C@@H](CS)C(=O)O` [cysteine, L-cysteine]: in data set [3], the Km is 100 to 300 µM.
